Results as given in article PMC8634379, “From the Design to the In Vivo Evaluation of Benzohomoadamantane-Derived Soluble Epoxide Hydrolase Inhibitors for the Treatment of Acute Pancreatitis” (Journal of Medicinal Chemistry, 2021).

Assays:
[1] = biological target: T1, human sEH (hsEH) (Homo sapiens, UniProt P34913); experiment: sEH inhibition, fluorescent-based assay (CMNPC substrate); format: biochemical; settings: for fold difference (decrease) in hsEH potency: 17 vs 16 (oxygen for methylene), 18 vs 17 (hydrogen for methyl)
T1 sequence (P34913 1-555): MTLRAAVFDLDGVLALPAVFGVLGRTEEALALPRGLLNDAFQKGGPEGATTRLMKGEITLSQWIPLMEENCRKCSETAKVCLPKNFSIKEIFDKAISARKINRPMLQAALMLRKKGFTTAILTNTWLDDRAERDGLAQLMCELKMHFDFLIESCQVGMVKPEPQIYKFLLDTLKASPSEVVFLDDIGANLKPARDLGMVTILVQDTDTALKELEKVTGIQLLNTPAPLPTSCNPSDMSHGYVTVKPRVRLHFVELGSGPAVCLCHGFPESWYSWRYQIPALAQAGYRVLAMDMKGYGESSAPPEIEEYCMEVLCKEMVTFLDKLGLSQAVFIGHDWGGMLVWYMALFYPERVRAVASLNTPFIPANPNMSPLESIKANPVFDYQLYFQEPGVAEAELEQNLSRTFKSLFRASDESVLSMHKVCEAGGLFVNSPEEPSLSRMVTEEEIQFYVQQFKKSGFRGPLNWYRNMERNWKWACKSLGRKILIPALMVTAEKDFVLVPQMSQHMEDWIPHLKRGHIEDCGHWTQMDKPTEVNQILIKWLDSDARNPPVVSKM
Procedure: The IC50 values reported herein were determined using a fluorescent-based assay (CMNPC as substrate).[16] The fluorescent assay was used with purified recombinant human, mouse, or rat sEH proteins. The enzymes were incubated at 30 °C with the inhibitors ([I]final = 0.4–100,000 nM) for 5 min in 100 mM sodium phosphate buffer (200 μL, pH 7.4) containing 0.1 mg/mL of BSA and 1% of DMSO. The substrate (CMNPC) was then added ([S]final = 5 μM). […] Results were obtained by regression analysis from a linear region of the curve.

[2] = Microsomal stability; format: in vitro ADME, human; settings: after 60 min incubation, NADP, 37 °C
Procedure: (§1) The human, rat, and mice recombinant microsomes employed were purchased from Tebu–Xenotech. […] Samples (75 μL) were taken from each well at 0, 10, 20, 40, and 60 min and transferred to a plate containing 4 °C 75 μL of acetonitrile and 30 μL of 0.5% formic acid in water were added for improving the chromatographic conditions. The plate was centrifuged ([…], 30 min) and supernatants were taken and analyzed by an ultraperformance liquid chromatograph–tandem mass spectrometer (Xevo-TQD, Waters) by employing a BEH C18 column and an isocratic gradient of 0.1% formic acid in water: 0.1% formic acid acetonitrile (60:40). The metabolic stability of the compounds was calculated from the logarithm of the remaining compounds at each of the time points studied.

[3] = Microsomal stability; format: in vitro ADME, mice; settings: after 60 min incubation, NADP, 37 °C
Procedure: as §1

[4] = Microsomal stability; settings: after 60 min incubation, NADP, 37 °C
Procedure: as §1

[5] = purified recombinant enzyme, average of three replicates

| SMILES | IC50 [1, 5] [nM] | IC50 ([1]; value given in the text) [nM] | microsomal stability, percentage of remaining compound (human) [2] [%] | microsomal stability, percentage of remaining compound (mice) [3] [%] | microsomal stability, percentage of remaining compound (rat) [4] | fold difference (decrease) in hsEH potency [1] [fold] |
| --- | --- | --- | --- | --- | --- | --- |
| CC12CC3CC(NC(=S)Nc4ccc(C(F)(F)F)cc4)(CC(C1)c1ccccc13)C2 [Compound 9, 1-(9-Methyl-5,6,8,9,10,11-hexahydro-7H-5,9:7,11-dimethanobenzo[9]annulen-7-yl)-3-(4-(trifluoromethyl)phenyl)thiourea] | 138 | – | – | – | – | – |
| Cc1ccc(OC(=O)NC23CC4CC(C)(CC(C2)c2ccccc24)C3)cc1 [Compound 11, p-Tolyl (9-Methyl-5,6,8,9,10,11-hexahydro-7H-5,9:7,11-dimethanobenzo[9]annulen-7-yl)carbamate] | > 10000 | 12700 | – | – | – | – |
| CC12CC3CC(NC(=O)Nc4ccc(F)c(F)c4F)(CC(C1)c1ccccc13)C2 [Compound 13, 1-(9-Methyl-5,6,8,9,10,11-hexahydro-7H-5,9:7,11-dimethanobenzo[9]annulen-7-yl)-3-(2,3,4-trifluorophenyl)urea] | 1 | – | 7 | 0.2 | – | – |
| CC12CC3CC(NC(=O)Nc4ccc(F)c(F)c4F)(CC(C1)c1ccccc13)O2 [Compound 14, 1-(5-Methyl-1,5,6,7-hexahydro-1,5:3,7-dimethanobenzo[e]oxonin-3(2H)-yl)-3-(2,3,4-trifluorophenyl)urea] | 20 | – | 77 | 23 | 33% | – |
| CC(=O)N1CCC(NC(=O)NC23CC4CC(C)(CC(C2)c2ccccc24)C3)CC1 [Compound 16, 1-(1-Acetylpiperidin-4-yl)-3-(9-methyl-5,6,8,9,10,11-hexahydro-7H-5,9:7,11-dimethanobenzo[9]annulen-7-yl)urea] | – | – | – | – | less than 1% | – |
| CC(=O)N1CCC(NC(=O)NC23CC4CC(C)(CC(C2)c2ccccc24)O3)CC1 [Compound 17, 1-(1-Acetylpiperidin-4-yl)-3-(5-methyl-1,5,6,7-tetrahydro-1,5:3,7-dimethanobenzo[e]oxonin-3(2H)-yl)urea] | 941 | – | – | – | – | 300 |
| CC(=O)N1CCC(NC(=O)NC23CC4CC(CC(C2)c2ccccc24)O3)CC1 [Compound 18, 1-(1-Acetylpiperidin-4-yl)-3-(1,5,6,7-tetrahydro-1,5:3,7-dimethanobenzo[e]oxonin-3(2H)-yl)urea] | > 10000 | – | – | – | – | > 10 |
| CC12CC3CC(NC(=O)N[C@H]4CC[C@H](Oc5ccc(C(=O)O)cc5)CC4)(CC(C1)c1ccccc13)O2 [Compound 21, 4-[((1r,4r)-4-(3-(5-Methyl-1,5,6,7-tetrahydro-1,5:3,7-Dimethanobenzo[e]oxonin-3(2H)-yl)ureido)cyclohexyl)oxy]benzoic Acid] | 28 | – | 90 | 83 | – | – |
